Measured values reported in ChEMBL document CHEMBL1932988, “Synthesis, antimicrobial, anticancer evaluation and QSAR studies of 6-methyl-4-[1-(2-substituted-phenylamino-acetyl)-1H-indol-3-yl]-2-oxo/thioxo-1,2,3,4-tetrahydropyrimidine-5-carboxylic acid ethyl esters” (Eur J Med Chem, 2012).
In brackets after ≈: the same amount, converted by molar mass.

Assays:
[1] = test system: Escherichia coli; test: Antibacterial activity against Escherichia coli MTCC 1652 after 24 hrs by tube dilution method; type: functional
[2] = test system: Escherichia coli; test: Ratio of MIC to MBC for Escherichia coli MTCC 1652; type: functional
[3] = test system: Bacillus subtilis; test: Antibacterial activity against Bacillus subtilis MTCC 2063 after 24 hrs by tube dilution method; type: functional
[4] = Partition coefficient, log P of the compound; type: physicochemical; details: octanol/water
[5] = test system: Aspergillus niger; test: Antifungal activity against Aspergillus niger MTCC 8189 after 7 days by tube dilution method; type: functional
[6] = test system: Bacillus subtilis; test: Antibacterial activity against Bacillus subtilis MTCC 2063 after 24 hrs by tube dilution method hrs followed by subculturing; type: functional
[7] = test system: Aspergillus niger; test: Antifungal activity against Aspergillus niger MTCC 8189 after 7 days by tube dilution method hrs followed by subculturing; type: functional
[8] = test system: Aspergillus niger; test: Ratio of MIC to MFC for Aspergillus niger MTCC 8189; type: functional
[9] = test system: Bacillus subtilis; test: Ratio of MIC to MBC for Bacillus subtilis MTCC 2063; type: functional
[10] = test system: Candida albicans; test: Antifungal activity against Candida albicans MTCC 227 after 48 hrs by tube dilution method hrs followed by subculturing; type: functional
[11] = test system: Staphylococcus aureus; test: Antibacterial activity against Staphylococcus aureus MTCC 2901 after 24 hrs followed by subculturing; type: functional
[12] = test system: Escherichia coli; test: Antibacterial activity against Escherichia coli MTCC 1652 after 24 hrs by tube dilution method hrs followed by subculturing; type: functional
[13] = test system: Candida albicans; test: Antifungal activity against Candida albicans MTCC 227 after 48 hrs by tube dilution method; type: functional
[14] = test system: Staphylococcus aureus; test: Ratio of MIC to MBC for Staphylococcus aureus MTCC 2901; type: functional
[15] = test system: Staphylococcus aureus; test: Antibacterial activity against Staphylococcus aureus MTCC 2901 after 24 hrs by tube dilution method; type: functional
[16] = test system: Candida albicans; test: Ratio of MIC to MFC for Candida albicans MTCC 227; type: functional
[17] = test system: MCF7; test: cells; details: Homo sapiens, MCF7, 72 h
Description: Cytotoxicity against human MCF7 cells after 72 hrs by MTT assay

[18] = test system: HCT-116; test: cells; details: Homo sapiens, HCT-116, 72 h

Row | SMILES | -logMIC [1] | Ratio [2] | -logMIC [3] | logP [4] | -logMIC [5] | MBC [6] [uM/ml] | MFC [7] [uM/ml] | Ratio [8] | Ratio [9] | MFC [10] [uM/ml] | MBC [11] [uM/ml] | MBC [12] [uM/ml] | -logMIC [13] | Ratio [14] | -logMIC [15] | Ratio [16] | IC50 [17] [µg/mL] | IC50 [18] [µg/mL]
1 | CCOC(=O)C1=C(C)NC(=O)NC1c1cn(C(=O)CNc2cccc([N+](=O)[O-])c2)c2ccccc12 (stereo not drawn) | 1.88 | 3 | 1.58 | 1.48 | 1.58 | >0.1 | >0.1 | 3 | 3 | >0.1 | 0.1 | 0.1 | 1.58 | 3 | 1.88 | 3 |  | 
2 | CCOC(=O)C1=C(C)NC(=O)NC1c1cn(C(=O)CNc2ccc([N+](=O)[O-])cc2)c2ccccc12 (stereo not drawn) | 1.88 | 3 | 1.58 | 1.48 | 1.58 | >0.1 | >0.1 | 3 | 3 | >0.1 | 0.1 | 0.1 | 1.58 | 3 | 1.88 | 3 | > 1000 | 
3 | CCOC(=O)C1=C(C)NC(=S)NC1c1cn(C(=O)CNc2ccc(Cl)cc2)c2ccccc12 (stereo not drawn) | 2.19 | 3 | 1.59 | 3.44 | 1.59 | >0.1 | >0.1 | 3 | 3 | >0.1 | >0.1 | 0.05 | 1.59 | 3 | 1.59 | 3 | 80 (≈ 166 µM) | 
4 | CCOC(=O)C1=C(C)NC(=O)NC1c1cn(C(=O)CNc2ccc(Cl)cc2)c2ccccc12 (stereo not drawn) | 1.27 | 3 | 1.27 | 2.04 | 1.57 | >0.11 | >0.11 | 3 | 3 | >0.11 | >0.11 | >0.11 | 1.57 | 3 | 1.57 | 3 | 200 (≈ 428 µM) | 
5 | CCOC(=O)C1=C(C)NC(=S)NC1c1cn(C(=O)CNc2ccc([N+](=O)[O-])cc2)c2ccccc12 (stereo not drawn) | 2.5 | 3 | 1.6 | 2.88 | 1.6 | >0.1 | >0.1 | 3 | 3 | 0.1 | >0.1 | 0.03 | 1.9 | 3 | 1.6 | 3 | > 1000 | 
6 | CCOC(=O)C1=C(C)NC(=S)NC1c1cn(C(=O)CNc2ccccc2N)c2ccccc12 (stereo not drawn) | 2.17 | 3 | 1.57 | 2.14 | 1.57 | >0.11 | 0.11 | 3 | 3 | >0.11 | 0.11 | 0.05 | 1.57 | 3 | 1.87 | 3 | 100 (≈ 216 µM) | 
7 | OC(Cn1cncn1)(Cn1cncn1)c1ccc(F)cc1F [FLUCONAZOLE] |  |  |  |  | 2.64 |  | 0.04 |  |  | 0.04 |  |  | 2.64 |  |  |  |  | 
8 | O=c1[nH]cc(F)c(=O)[nH]1 [FLUOROURACIL] |  |  |  |  |  |  |  |  |  |  |  |  |  |  |  |  | 0.67 (≈ 5.15 µM) | 6 (≈ 46.1 µM)
9 | CCn1cc(C(=O)O)c(=O)c2cc(F)c(N3CCNCC3)cc21 [NORFLOXACIN] | 2.61 |  | 2.61 |  |  | 0.019 |  |  |  |  | 0.019 | 0.019 |  |  | 2.61 |  |  | 
